From patent publication US4988681A, “Phosphinic acid derivatives” (Banyu Pharmaceutical Co., Ltd., priority 1988, dated 1991)
Read-outs that look alike come from different tables or passages of the source.

Columns and labels:
[1] = Pharmacokinetic evaluation: plasma concentration in rats; type: in vivo, Male SD rats; conditions: for AUC / concentration at 0.5 h / concentration at 0.25 h / concentration at 5 min / concentration at 1 h / concentration at 2 h / concentration at 4 h / concentration at 6 h / concentration at 8 h / concentration at 24 h: rat; for AUC: trapezoidal rule; for concentration at 0.5 h: 1/2 h; for concentration at 0.25 h: 1/4 h; for concentration at 5 min: 1/12 h
Method: (4) Pharmacokinetic evaluations
Male SD rats ([…]) were divided into groups each consisting of three animals. […] Furthermore, cilastatin was intravenously administered to a 14th group as a control group.
Plasma samples were taken periodically from the carotid artery through a cannula inserted into it at the points of 1/12, 1/4, 1/2, 1, 2, 4, 6, 8 and 24 hours after the administration.
The area under the curve (AUC) of the plasma concentration was determined according to the trapezoidal rule.

[2] = target: T1, porcine kidney dehydropeptidase I (Sus scrofa, UniProt P22412); assay: Inhibitory activity on porcine kidney dehydropeptidase I (DHP-I); type: biochemical
T1 construct: Frozen porcine kidney cortex was homogenized; from tissue; host or cells: porcine kidney cortex
T1 sequence (P22412 17-409): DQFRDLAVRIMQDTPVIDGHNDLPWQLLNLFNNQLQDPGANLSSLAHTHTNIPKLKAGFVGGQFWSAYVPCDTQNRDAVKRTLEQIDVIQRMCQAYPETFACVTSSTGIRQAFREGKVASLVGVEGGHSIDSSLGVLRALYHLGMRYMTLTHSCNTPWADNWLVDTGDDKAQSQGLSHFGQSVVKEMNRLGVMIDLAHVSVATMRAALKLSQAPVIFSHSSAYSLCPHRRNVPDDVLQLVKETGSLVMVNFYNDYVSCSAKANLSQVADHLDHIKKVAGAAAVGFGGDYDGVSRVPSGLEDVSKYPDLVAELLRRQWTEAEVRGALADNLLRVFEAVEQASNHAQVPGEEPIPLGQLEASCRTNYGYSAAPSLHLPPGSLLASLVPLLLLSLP
Method: (1) Inhibitory activity on porcine kidney dehydropeptidase I
(i) Purification of porcine dehydropeptidase I
Frozen porcine kidney cortex was homogenized. Butanol (1/4 volume) pre-cooled in a dry ice-acetone bath was added to the homogenate, and the mixture was stirred at 4° C. for 43 hours. The mixture was then dialyzed for one day and centrifuged at 3,000 g for 30 minutes. To the resulting supernatant was added ammonium sulfate. A precipitate at the salt concentration range between 50 and 75% was collected to give a crude enzyme preparation which was re-dissolved in a 50 mM MOPS buffer containing 0.5 M NaCl. The solution was charged on a cilastatin affinity column. Elution with a 50 mM MOPS buffer containing 0.5 M NaCN gave a purified enzyme preparation.
(ii) Measurement of inhibitory activity
The resulting enzyme preparation (3 mU) and an inhibitor were pre-incubatedat 37° C. for 3 hours in 2.7 ml of a 50 mM MOPS buffer (pH 7.4), and then 2.475 ml of the mixture was transferred into a cuvette. As a substrate, 25 microliters of a 5 mM glycyldehydrophenylalanine solution in a 50 mM MOPS buffer (pH 7.4) was added to start an enzymic reaction. The reaction was carried out at 37° C. in a spectrophotometer fitted with a constant-emperature device, and a decrease of the absorbance at 275 nm during a period of 5 minutes was measured. […] An IC50 value was calculated from the percent inhibition data.
One unit (U) is defined as the amount of the enzyme which hydrolyzes 1 micromole of the substrate (glycyldehydrophenylalanine) per minute at a substrate concentration of 0.05 mM at 37° C. in a 50 mM MOPS buffer (pH 7.4).

[3] = Effect on urinary recovery of carbapenem (imipenem) in rats; type: in vivo, Male SD rats; conditions: urine up to 8 hours, n = 3
Method: (2) Effect on urinary recovery of carbapenem
Male SD rats (8 week-old) were grouped, three per group. Imipenem alone was intravenously administered in a dose of 10 mg/kg to a first group. […] For comparison, a combination of imipenem (10 mg/kg) and cilastatin (10 mg/kg) was intravenously administered to a fourth group.
The urinary recovery of imipenem was calculated.

[4] = tested on: nephrotoxicity induced by imipenem; assay: Protective action on nephrotoxicity induced by imipenem in rabbits; type: in vivo, male Japanese white rabbits; conditions: imipenem 150 mg/kg alone
Method: (3) Protective action on nephrotoxicity induced by carbapenem antibiotics
Twelve male Japanese white rabbits (18 week-old; body weight 3.19-3.54 kg) were divided into three groups each consisting of 4 animals. Imipenem alone was administered in a dose of 150 mg/kg to a first group. To a second group, a combination of imipenem (150 mg/kg) and the compound No. 2 (150 mg/kg) was administered. To a third group as a control, sterilized physiological saline was administered. In all cases, the administration was effected through the auricular vein. Forty-eight hours later, a blood sample was taken from each of the animals, and the BUN and creatinine values were measured. The kidneys of the rabbits were taken and examined histopathologically.

DHP-I = conditions: in words, cited from earlier work
[5] = plasma, ester po, 10 mg/kg equivalent to compound No. 2, calculated as free acid (No. 2)
[6] = substrate glycyldehydrophenylalanine, pH 7.4, 37° C., 3 h pre-incubation, read-out: Concentration producing 50% inhibition (IC50)
[7] = plasma, iv 10 mg/kg (cilastatin dose not given)
[8] = plasma, iv 10 mg/kg (cilastatin dose not given), N.D.: below the detection limit
[9] = plasma, iv 10 mg/kg, N.D.: below the detection limit
[10] = plasma, po 10 mg/kg, N.D.: below the detection limit
[11] = DHP-I inhibitory compounds of cited literature including cilastatin
[12] = in vivo, iv 10 mg/kg (cilastatin dose not given)

Row | Compound | IC50 [2, 6] [µM] | AUC [1, 7] [ng·h/mL] | AUC ([1]; plasma, po 10 mg/kg) [ng·h/mL] | concentration at 0.5 h [1, 7] [ng/mL] | concentration at 0.25 h [1, 7] [ng/mL] | concentration at 5 min [1, 7] [ng/mL] | concentration at 1 h [1, 8] [ng/mL] | concentration at 2 h ([1]; plasma, iv 10 mg/kg) [ng/mL] | concentration at 4 h ([1]; plasma, iv 10 mg/kg) [ng/mL] | concentration at 6 h [1, 9] [ng/mL] | concentration at 8 h ([1]; plasma, iv 10 mg/kg) [ng/mL] | concentration at 0.5 h ([1]; plasma, po 10 mg/kg) [ng/mL] | concentration at 0.25 h ([1]; plasma, po 10 mg/kg) [ng/mL] | concentration at 5 min ([1]; plasma, po 10 mg/kg) [ng/mL] | concentration at 1 h ([1]; plasma, po 10 mg/kg) [ng/mL] | concentration at 2 h ([1]; plasma, po 10 mg/kg) [ng/mL] | concentration at 4 h ([1]; plasma, po 10 mg/kg) [ng/mL] | concentration at 6 h ([1]; plasma, po 10 mg/kg) [ng/mL] | further results
1 | Cc1oc(=O)oc1COC(=O)/C(=C/C1CCCCC1)CP(=O)(O)CC(C)C [Compound No. 27, (5-methyl-2-oxo-1,3-dioxol-4-yl)methyl (Z)-3-cyclohexyl-2-(hydroxyisobutylphosphinoyl)methylpropenoate] | 150 | – | – | – | – | – | – | – | – | – | – | – | – | – | – | – | – | – | AUC [1, 5]: 56900 ng·h/mL; concentration at 0.5 h [1, 5]: 13300 ng/mL; concentration at 0.25 h [1, 5]: 10100 ng/mL; concentration at 5 min [1, 5]: 1500 ng/mL; concentration at 1 h [1, 5]: 11500 ng/mL; concentration at 2 h [1, 5]: 9300 ng/mL; concentration at 4 h [1, 5]: 4600 ng/mL; concentration at 6 h [1, 5]: 2600 ng/mL; concentration at 8 h [1, 5]: 1400 ng/mL; Oral absorbability ([1]; rats, in words): better oral absorbability than the compound No. 2
2 | C[C@@H](O)[C@H]1C(=O)N2C(C(=O)O)=C(SCCN=CN)C[C@H]12 [Imipenem, reference compound] | – | – | – | – | – | – | – | – | – | – | – | – | – | – | – | – | – | – | Urinary recovery of imipenem, Mean ± S.D. ([3]; imipenem 10 mg/kg iv alone, no inhibitor): 29.6 ± 4.8%; Necrosis of the kidney tissue, number of rabbits which necrotized versus number tested [4]: 4/4; BUN ([4]; auricular vein, 48 hours, * P ≤ 0.05): 70.8 mg/100 ml; Necrosis of the kidney tissue ([4]; grade in words): Marked
3 | CC1(C)C[C@@H]1C(=O)N/C(=C\CCCCSC[C@H](N)C(=O)O)C(=O)O [Cilastatin, reference compound] | – | – | – | – | – | – | – | – | – | – | – | – | – | – | – | – | – | – | Urinary recovery of imipenem, Mean ± S.D. ([3]; inhibitor 10 mg/kg iv with imipenem 10 mg/kg iv): 85.9 ± 2.9%; Activity in oral administration (DHP-I; [11]): do not show sufficient activity in oral administration; Duration of action (DHP-I; [11]): do not always have satisfactory duration of action; Effect on potential renal toxicity of imipenem (DHP-I; combined use with imipenem): prevent its potential renal toxicity; Effect on urinary recovery of imipenem (DHP-I; combined use with imipenem): greatly improve urinary recovery of imipenem; Oral absorption (DHP-I): not orally absorbable; AUC [1, 12]: 12000 ng·h/mL; concentration at 0.5 h [1, 12]: 5800 ng/mL; concentration at 0.25 h [1, 12]: 18800 ng/mL; concentration at 5 min [1, 12]: 46900 ng/mL; IC50 [2]: 0.1 µM

More lines, in order of falling IC50 [2, 6], values ahead:

Row | IC50 [2, 6] [µM] | AUC [1, 7] [ng·h/mL] | AUC ([1]; plasma, po 10 mg/kg) [ng·h/mL] | concentration at 0.5 h [1, 7] [ng/mL] | concentration at 0.25 h [1, 7] [ng/mL] | concentration at 5 min [1, 7] [ng/mL] | concentration at 1 h [1, 8] [ng/mL] | concentration at 2 h ([1]; plasma, iv 10 mg/kg) [ng/mL] | concentration at 4 h ([1]; plasma, iv 10 mg/kg) [ng/mL] | concentration at 6 h [1, 9] [ng/mL] | concentration at 8 h ([1]; plasma, iv 10 mg/kg) [ng/mL] | concentration at 0.5 h ([1]; plasma, po 10 mg/kg) [ng/mL] | concentration at 0.25 h ([1]; plasma, po 10 mg/kg) [ng/mL] | concentration at 5 min ([1]; plasma, po 10 mg/kg) [ng/mL] | concentration at 1 h ([1]; plasma, po 10 mg/kg) [ng/mL] | concentration at 2 h ([1]; plasma, po 10 mg/kg) [ng/mL] | concentration at 4 h ([1]; plasma, po 10 mg/kg) [ng/mL] | concentration at 6 h ([1]; plasma, po 10 mg/kg) [ng/mL] | Compound | further results
4 | 0.05 | 82400 | 19000 | 30400 | 40600 | 58100 | 18300 | 11700 | 4800 | 2300 | 1000 | 3400 | 3100 | 1300 | 2500 | 3000 | 1900 | 1100 | O=C(O)/C(=C/C1CCCCC1)CP(=O)(O)CC1CCCCC1 [Compound No. 28, (Z)-3-cyclohexyl-2-(cyclohexylmethylhydroxyphosphinoyl)methylpropenoic acid] | concentration at 24 h [1, 9]: 100 ng/mL; concentration at 8 h [1, 10]: 500 ng/mL
5 | 0.018 | 226000 | 18400 | 55000 | 74700 | 86700 | 38000 | 25200 | 14800 | 10800 | 6400 | 5000 | 4100 | 500 | 5000 | 3200 | 2100 | 1000 | O=C(O)/C(=C/C1CCCCC1)CP(=O)(O)CC1CCCC1 [Compound No. 17, (Z)-3-cyclohexyl-2-(cyclopentylmethylhydroxyphosphinoyl)methylpropenoic acid] | concentration at 24 h [1, 9]: 500 ng/mL; concentration at 8 h [1, 10]: 100 ng/mL
6 | 0.014 | 40600 | 3900 | 21700 | 26500 | 40800 | 12800 | 5200 | 1100 | 200 | 200 | 1400 | 1100 | 500 | 1200 | 800 | 300 | 200 | CC(C)CP(=O)(O)C/C(=C\C1CC1)C(=O)O [Compound No. 10, (Z)-3-cyclopropyl-2-(hydroxyisobutylphosphinoyl)methylpropenoic acid] | –
7 | 0.011 | 9300 | – | 4600 | 11300 | 28000 | 1400 | 300 | 100 | – | – | – | – | – | – | – | – | – | CC(C)CP(=O)(O)C/C(=C\CCCC(=O)O)C(=O)O [Compound No. 14, (Z)-2-(hydroxyisobutylphosphinoyl)methyl-2-heptenedioic acid] | –
